Test results as given in US20260092043A1, “NOVEL BENZOXAZOLE DERIVATIVE COMPRISING 4-AMINO-BUTANAMIDE AND USE THEREOF” (EWHA UNIVERSITY - INDUSTRY COLLABORATION FOUNDATION, priority 2022, published 2026).
Like-named read-outs stand apart in the source and are kept apart here.

Assays:
[1] = system: IL-1β mRNA; experiment: IL-1β mRNA level in liver tissue of LPS-injected mice; type: in vivo, mice (C57BL/6J); conditions: 10 mg/kg in olive oil 1 hour before LPS (1 mg/kg i.p., 6 h)
Experimental: (§1) 10-week-old male C57BL/6J mice (Jackson Laboratory, Bar Harbor, ME, USA) were used in the experiment. All animal experiments were performed in accordance with the protocol approved by the Institutional Animal Care and Use Committee of Ewha Womans University (EWHA IACUC 19-001). The mice were housed in a temperature-controlled room (20 to 22° C. with a 12 h light:12 h dark cycle). The compounds prepared according to Examples 1 to 10 were diluted with olive oil (vehicle, Sigma) to a volume of 200 μL (10 mg/kg) and administered to mice (male C57BL/6J, […]) 1 hour before LPS administration. LPS (1 mg/kg, 6 h) was resuspended in saline and injected intraperitoneally at a dose of 1 mg/kg of body weight. At the end of the experiment, the mice were sacrificed (tribromoethanol, 250 mg/kg, i.p.) and the liver and blood were collected for further analysis.
(§2) Total RNA was isolated from tissues using TRIzol reagent (Invitrogen), and reverse transcription (RT) and real-time PCR analysis were performed using the ABI PRISM 7700 system (PE Biosystems). Data were normalized to the amount of GAPDH mRNA.
(§3) 2 compounds (Compounds 4d and 5f) were selected for in vivo assay. […] In order to evaluate the anti-inflammatory activity in mice, the mRNA expressions of IL-1β, IL-6, and TNF-α were measured, and the results are shown in FIG. 3.

[2] = system: IL-6 mRNA; experiment: IL-6 mRNA level in liver tissue of LPS-injected mice; type: in vivo, mice (C57BL/6J); conditions: 10 mg/kg in olive oil 1 hour before LPS (1 mg/kg i.p., 6 h)
Experimental: as §1, §2, §3

[3] = system: p-IκBα; experiment: Western blotting of p-IκBα in LPS-treated AML-12 cells; type: cell-based, mouse; conditions: 10 μM compound, FIG. 2
Experimental: (§4) Human keratinocytes HaCaT or alpha mouse liver 12 (AML-12) cells were obtained from Cell Lines Service GmbH (Eppelheim, Germany). The cells were cultured in Dulbecco's modified Eagle's medium (DMEM, HyClone) supplemented with 10% fetal bovine serum (HyClone) (HaCaT cells) and 1% penicillin/streptomycin (HyClone) and maintained at 37° C. in a humidified atmosphere containing 5% CO2. AML-12 cells were pretreated with compounds at a concentration of 10 μM 1 hour before LPS treatment and then treated with LPS (100 ng/mL) for 24 hours.
(§5) Protein levels in cells and mouse tissues were determined by immunoblot analysis. […] After quantifying the protein concentrations in the lysates (supernatant) using the Bradford assay (Bio-Rad, CA, USA), the lysates were mixed with a sample buffer (62.5 mM Tris-HCl pH 6.8, 10% glycerol, 2% sodium dodecyl sulfate, 0.0125% bromophenol blue, 2.5% β-mercaptoethanol) and heated at 95° C. for 5 minutes. […] Immune complexes were detected with horseradish peroxidase (HRP)-conjugated secondary antibodies (Bio-Rad, Hercules, CA, USA) and enhanced with chemiluminescence reagents (Ab Frontier, Daejeon, Korea) using IQ800 (GE Healthcare, Sweden). The abundance of the target protein was quantified by densitometric analysis of the immunoblot. […]

[4] = system: LPS-induced liver inflammatory disease model; experiment: Liver histology (H&E) and F4/80 immunohistochemistry in LPS-induced liver inflammatory disease model; type: in vivo, mice (C57BL/6J); conditions: mice, compared to LPS alone; for F4/80-positive cells in liver: immunohistochemistry
Experimental: as §1
First, 4% paraformaldehyde-fixed liver tissues were embedded in paraffin according to standard procedures. 4-micron-thick liver tissue sections were prepared, and immunohistochemical staining was performed according to the manufacturer's instructions. 4-micron-thick liver tissue sections were stained with hematoxylin and eosin (H&E) or subjected to immunohistochemical characterization using an antibody specific for F4/80 (Abcam, Cambridge, MA, UK). All steps were performed at room temperature, and the tissues were washed with tap water after each step. The sections were photographed using a Zeiss microscope (Carl Ziess, Thronwood, NY, USA) equipped with AxioCam software.
As a result of LPS administration, macrophage infiltration into the liver tissue was observed. When Compounds 5f and 4d were administered, the inflammatory response was improved compared to when LPS was administered alone.
In order to characterize the phenotype of macrophages accumulated in LPS-induced inflammation, immunohistochemical studies were performed using antibodies against F4/80 as a marker of mature macrophages (FIG. 4b). When LPS was administered alone to induce an inflammatory response, hepatic macrophage accumulation increased. As a result, there was a marked elevation of the number of F4/80-positive cells.

[5] = system: TNF-α mRNA; experiment: TNF-α mRNA level in liver tissue of LPS-injected mice; type: in vivo, mice (C57BL/6J); conditions: 10 mg/kg in olive oil 1 hour before LPS (1 mg/kg i.p., 6 h)
Experimental: as §1, §2, §3

[6] = system: p-NF-κB p65; experiment: Western blotting of p-NF-κB p65 in LPS-treated AML-12 cells; type: cell-based, mouse; conditions: 10 μM compound, FIG. 2
Experimental: as §4, §5

[7] = system: IL-1β mRNA expression; experiment: Inhibition of IL-1β mRNA expression in LPS-treated HaCaT cells (real-time PCR); type: cell-based, Human; conditions: 10 μM compound pretreatment then LPS, LPS alone set to 100%
Experimental: as §4, §2
(§6) 13 novel synthetic compounds (Compounds 5a to 5m) and 3 synthetic intermediates (Compounds 4d, 4e, and 41) were screened by measuring the mRNA expression levels of IL-6 and IL-1β. Human keratinocyte HaCaT cell lines were used to evaluate the mRNA expression inhibition effect. […] Each compound was administered at a concentration of 10 μM.

[8] = system: pY-STAT3; experiment: Western blotting of pY-STAT3 in LPS-treated AML-12 cells; type: cell-based, mouse; conditions: 10 μM compound, FIG. 2
Experimental: as §4, §5

[9] = Plasma ALT and AST levels in LPS-injected mice; type: in vivo, mice (C57BL/6J); conditions: for plasma alanine aminotransferase (ALT) level / plasma aspartate transaminase (AST) level: compared to LPS alone; for hepatotoxicity in vivo: judged by ALT and AST levels
Experimental: as §1
The concentrations of plasma alanine aminotransferase (ALT) and aspartate transaminase (AST) were determined using an EnzyChrom™ assay kit (BioAssay Systems, Hayward, CA, USA) according to the manufacturer's recommendations.
Consistent with the altered histological characteristics, plasma alanine aminotransferase (ALT) and aspartate transaminase (AST) levels increased after LPS administration (FIGS. 4c and 4d), and when Compounds 5f and 4d were administered, ALT and AST levels decreased.

[10] = system: IL-6 mRNA expression; experiment: Inhibition of IL-6 mRNA expression in LPS-treated HaCaT cells (real-time PCR); type: cell-based, Human; conditions: for mRNA Expression (%) (10 μM) IL-6: HaCaT cells, 10 μM compound pretreatment then LPS, LPS alone set to 100%; for IC50: Homo sapiens, HaCaT
Experimental: as §4, §2, §6
Dose-response studies were performed for the above five compounds at different concentrations to obtain IC50 values (μM) (FIG. 1 and Table 3).

[11] = dose-response of normalized IL-6 mRNA expression (FIG. 1), read-out: IC50
[12] = log of IC50, dose-response of normalized IL-6 mRNA expression (FIG. 1), read-out: Log (converted)

## Cc1ccc2oc(Nc3ccc(NC(=O)CCCNC(=O)OC(C)(C)C)cc3)nc2c1 [Compound 4d, tert-butyl 4-(4-(5-methylbenzo[d]oxazol-2-ylamino)phenylamino)-4-oxobutylcarbamate]
[1]
  mRNA level of IL-1β in vivo: significantly reduced
[2]
  mRNA level of IL-6 in vivo: significantly reduced
[3]
  expression level of p-IκBα: significantly down-regulated
[4]
  inflammatory response in liver histology (H&E): improved
  F4/80-positive cells in liver: significant decrease
[5]
  mRNA level of TNF-α in vivo: significantly reduced
[6]
  expression level of p-NF-κB p65: significantly down-regulated
[7]
  mRNA Expression (%) (10 μM) IL-1β: 0.03%
[8]
  expression level of pY-STAT3: significantly down-regulated
[9]
  plasma alanine aminotransferase (ALT) level: decreased
  plasma aspartate transaminase (AST) level: decreased
  hepatotoxicity in vivo: without hepatotoxicity
[10]
  mRNA Expression (%) (10 μM) IL-6: 2.4%
[10]; [11]
  IC50: 0.0604 nM
[10]; [12]
  IC50: 0.0603 nM

## CC(C)(C)c1ccc2oc(Nc3ccc(NC(=O)CCCN)cc3)nc2c1 [Compound 5f, 4-amino-N-(4-(5-tert-butylbenzo[d]oxazol-2-ylamino)phenyl)butanamide]
[1]
  mRNA level of IL-1β in vivo: significantly reduced
[2]
  mRNA level of IL-6 in vivo: significantly reduced
[3]
  expression level of p-IκBα: significantly down-regulated
[4]
  inflammatory response in liver histology (H&E): improved
  F4/80-positive cells in liver: significant decrease
[5]
  mRNA level of TNF-α in vivo: significantly reduced
[6]
  expression level of p-NF-κB p65: significantly down-regulated
[7]
  mRNA Expression (%) (10 μM) IL-1β: 2.83%
[8]
  expression level of pY-STAT3: significantly down-regulated
[9]
  plasma alanine aminotransferase (ALT) level: decreased
  plasma aspartate transaminase (AST) level: decreased
  hepatotoxicity in vivo: without hepatotoxicity
[10]
  mRNA Expression (%) (10 μM) IL-6: 3.26%
[10]; [11]
  IC50: 0.444 nM
[10]; [12]
  IC50: 0.447 nM

## Cc1cccc2oc(Nc3ccc(NC(=O)CCCN)cc3)nc12 [Compound 5c, 4-amino-N-(4-(4-methylbenzo[d]oxazol-2-ylamino)phenyl)butanamide]
[7]
  mRNA Expression (%) (10 μM) IL-1β: 0.79%
[10]
  mRNA Expression (%) (10 μM) IL-6: 2.08%
[10]; [11]
  IC50: 1640 nM
[10]; [12]
  IC50: 1660 nM

## COc1cc(NC(=O)CCCN)ccc1Nc1nc2cc(C(C)(C)C)ccc2o1 [Compound 5m, 4-amino-N-(4-(5-tert-butylbenzo[d]oxazol-2-ylamino)-3-methoxyphenyl)butanamide]
[7]
  mRNA Expression (%) (10 μM) IL-1β: 0.49%
[10]
  mRNA Expression (%) (10 μM) IL-6: 4.07%
[10]; [11]
  IC50: 0.199 nM
[10]; [12]
  IC50: 0.2 nM

## Cc1ccc2oc(Nc3ccc(NC(=O)CCCN)cc3)nc2c1 [Compound 5d, 4-amino-N-(4-(5-methylbenzo[d]oxazol-2-ylamino)phenyl)butanamide]
[7]
  mRNA Expression (%) (10 μM) IL-1β: 0.03%
[10]
  mRNA Expression (%) (10 μM) IL-6: 3.39%
[10]; [11]
  IC50: 32.7 nM
[10]; [12]
  IC50: 33.1 nM
